Reference: publication PMC3701698, “Pathway-based Screening Strategy for Multitarget Inhibitors of Diverse Proteins in Metabolic Pathways” (PLoS Computational Biology, 2013)
Like-named read-outs stand apart in the source and are kept apart here.

Experiments:
dual enzyme (SDH and SK) = experiment: SDH-SK dual enzyme activity ADP assay; assay type: biochemical, Helicobacter pylori; settings: for dual enzyme dose-response curve compared with SDH and SK curves: 2 mM 3-dehydroshikimate, 100 nM SDH, 100 nM SK; for dual enzyme (SDH and SK) activity curve: at inhibitor concentrations greater than the IC90 value
Method: (§1) We performed ADP assay providing a direct method to analyze SDH-SK dual enzyme activity. The assay was initiated by addition of the 3-dehydroshikimate (2 mM) after incubating in a reaction mixture containing 2.5 mM ATP, 0.5 mM NADPH, 100 nM SDH, 100 nM SK enzyme, 50 mM KCl, 5 mM MgCl2 and different inhibitors. The reaction was carried out at 25°C in a mixture of 100 mM Tris-HCl buffer, pH 7.5 and terminated at 100°C for 5 mins in the reaction time of initial rate. The amount of ADP was measured by using ADP Colorimetric Assay Kit II (BioVision) according to the manufacturer's instruction. We also performed 3-dehydroquinate synthase inhibition assay. The reaction was comprised of 3-deoxy-D-arabinoheptulosonate 7-phosphate (1 mM) and NAD+ (0.5 mM). The amount of NADH was measured by using NAD+/NADH Quantification Kit (BioVision). All assays were conducted in a 96-well microplate and analyzed with a spectrophotometer (FLUOstar OPTIMA, BMG LABTECH). The dose-response curve was fitted using the non-linear regression function of GraphPad Prism. The IC90 values were computed from the IC50 and Hill slop.

shikimate kinase (SK) = shikimate kinase (SK) (Helicobacter pylori, UniProt P56073); experiment: Single enzyme inhibition assay, SK activity (ADP release coupled to NADH oxidation); assay type: biochemical; settings: for IC50: 1.6 mM shikimate, 2 mM ATP, 25°C, pH 8.0; for inhibition at 100 µM: Table S4, read-out: SK IC50 (μM), dash = inhibition percentage
shikimate kinase (SK), sequence (P56073 whole entry): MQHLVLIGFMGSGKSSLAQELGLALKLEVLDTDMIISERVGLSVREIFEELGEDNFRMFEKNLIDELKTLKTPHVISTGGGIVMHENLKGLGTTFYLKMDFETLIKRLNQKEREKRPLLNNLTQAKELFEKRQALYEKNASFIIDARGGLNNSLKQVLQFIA
Method: (§2) The SK activity was measured by coupling the release of ADP from the SK-catalyzed reaction to the oxidation of NADH using pyruvate kinase (EC 2.7.1.40) and lactate dehydrogenase (EC 1.1.1.27) as coupling enzymes. SDH activity was determined by monitoring the formation of NADPH. The initial rate of the reaction was measured by the increase in absorbance at A340 (ε = 6,200 M^−1 cm^−1) in the present of shikimate. The assay was performed at 25°C in a mixture of 100 mM Tris-HCl buffer, pH 8.0.
(§3) Both SK and SDH were used in a final enzyme concentration of 100 nM. For determination of IC50 for each inhibitor, the assay was initiated by the addition of shikimate (1.6 mM) after incubation in a buffer containing cofactor (2 mM ATP for SK or 2 mM NADP for SDH), enzyme, and inhibitor (dissolved in 5% dimethyl sulfoxide). All assays were conducted in a 96-well microplate and analyzed with a spectrophotometer (FLUOstar OPTIMA, BMG LABTECH). A dose-response curve was fitted using the non-linear regression function of GraphPad Prism®.

[1] = biological target: T1, 3-dehydroquinate synthase (Helicobacter pylori, UniProt P56081); experiment: 3-dehydroquinate synthase inhibition assay (NADH quantification); assay type: biochemical; settings: for inhibition of 3-dehydroquinate synthase: 1 mM DAHP, 0.5 mM NAD+
T1 sequence (P56081 1-343): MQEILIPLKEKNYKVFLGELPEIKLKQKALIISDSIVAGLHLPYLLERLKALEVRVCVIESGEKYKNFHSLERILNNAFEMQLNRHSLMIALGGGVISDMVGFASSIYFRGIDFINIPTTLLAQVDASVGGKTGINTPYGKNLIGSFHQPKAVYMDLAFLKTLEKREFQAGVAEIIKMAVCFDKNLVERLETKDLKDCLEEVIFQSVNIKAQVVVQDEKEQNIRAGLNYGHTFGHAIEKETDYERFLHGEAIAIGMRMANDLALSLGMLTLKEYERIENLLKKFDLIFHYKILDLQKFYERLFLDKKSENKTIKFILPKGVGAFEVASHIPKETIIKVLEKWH
Method: as §1

[2] = biological target: T2, shikimate dehydrogenase (SDH) (Helicobacter pylori, UniProt P56119); experiment: Single enzyme inhibition assay, SDH activity (formation of NADPH, A340); assay type: biochemical; settings: for IC50: 1.6 mM shikimate, 2 mM NADP, 25°C, pH 8.0
T2 sequence (P56119 1-263): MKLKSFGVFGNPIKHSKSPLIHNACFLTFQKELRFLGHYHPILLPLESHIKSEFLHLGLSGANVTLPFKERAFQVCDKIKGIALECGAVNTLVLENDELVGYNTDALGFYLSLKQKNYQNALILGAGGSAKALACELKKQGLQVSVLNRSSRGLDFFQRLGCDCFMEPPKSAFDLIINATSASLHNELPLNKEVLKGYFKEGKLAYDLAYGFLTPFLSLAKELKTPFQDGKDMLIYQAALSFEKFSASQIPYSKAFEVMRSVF
Method: as §2, §3

[3] = 100 nM enzyme, read-out: SK IC50
[4] = 100 nM enzyme, read-out: SDH IC50

Nc1ccc2c(O)c(N=Nc3ccc4c(O)cc(S(=O)(=O)O)cc4c3)c(S(=O)(=O)O)cc2c1 [NSC162535, reference compound]
dual enzyme dose-response curve compared with SDH and SK curves (dual enzyme (SDH and SK)): nearly identical profiles

O=C(Nc1ccc2c(O)cc(S(=O)(=O)O)cc2c1)Nc1ccc2c(O)cc(S(=O)(=O)O)cc2c1 [NSC45174]
IC50 (shikimate kinase (SK); SK IC50, 100 nM enzyme): < 10 µM | dual enzyme dose-response curve compared with SDH and SK curves (dual enzyme (SDH and SK)): median effect | dual enzyme (SDH and SK) activity curve (dual enzyme (SDH and SK)): approximately 0 | IC50 [1]: 7.1 µM | IC50 ([2]; SDH IC50, 100 nM enzyme): 3.6 µM

Cc1cc(/N=N/c2ccc(/N=N/c3ccc(/N=N/c4ccc(O)c(C(=O)O)c4)cc3)c(S(=O)(=O)O)c2C)c(N)cc1N [NSC45611]
IC50 (shikimate kinase (SK); [3]): 4.8 µM | dual enzyme dose-response curve compared with SDH and SK curves (dual enzyme (SDH and SK)): median effect | dual enzyme (SDH and SK) activity curve (dual enzyme (SDH and SK)): approximately 0 | inhibition of 3-dehydroquinate synthase [1]: no inhibitions | IC50 [2, 4]: 1.4 µM

Cc1ccc(S(=O)(=O)CCSc2n[nH]c(=O)n2-c2ccc(OCc3ccccc3)cc2)cc1 [HTS02873]
IC50 (shikimate kinase (SK); [3]): > 100 µM | inhibitory effect for SK (shikimate kinase (SK); at 100 µM): no inhibitory effect | inhibition at 100 µM (shikimate kinase (SK)): < 50% | IC50 [2, 4]: 4.9 µM

O=C(Nc1ccc2ncccc2c1)Nc1ccc2ncccc2c1 [NSC71881]
inhibition at 100 µM (shikimate kinase (SK)): < 50% | inhibition at 100 µM ([2]; at 100 μM, Table S4, read-out: SDH IC50 (μM), dash = inhibition percentage): < 50%

O=C(NNC(=O)C1c2ccccc2Oc2ccccc21)c1cccc([N+](=O)[O-])c1 [RH00037]
inhibition of 3-dehydroquinate synthase [1]: no inhibitions | IC50 [2, 4]: 24.8 µM
